Where two headings read alike, the source gives them in different places.
Tests used:
cells [1] = test: Amount of AP1903 needed in vitro for effective signaling of cells; format: cell-based; details: converted with 1600 Da MW
Description: The fixed dose of AP1903 for injection used, for example, may be 0.4 mg/kg intravenously infused over 2 hours. The amount of AP1903 needed in vitro for effective signaling of cells is 10-100 nM (1600 Da MW). This equates to 16-160 μg/L or {tilde over ( )}0.016-1.6 μg/kg (1.6-160 μg/kg). Doses up to 1 mg/kg were well-tolerated in the Phase I study of AP1903 described above. Therefore, 0.4 mg/kg may be a safe and effective dose of AP1903 for this Phase I study in combination with the therapeutic cells.

cells [2] = details: cited from earlier work
[3] = cited from earlier work

In the case of `CC[C@H](C(=O)N1CCCC[C@H]1C(=O)O[C@H](CCc1ccc(OC)c(OC)c1)c1cccc(OCC(=O)NCCNC(=O)COc2cccc([C@@H](CCc3ccc(OC)c(OC)c3)OC(=O)[C@@H]3CCCCN3C(=O)[C@@H](CC)c3cc(OC)c(OC)c(OC)c3)c2)c1)c1cc(OC)c(OC)c(OC)c1` (relative stereo) [AP1903, 2-Piperidinecarboxylic acid, 1-[(2S)-1-oxo-2-(3,4,5-trimethoxyphenyl)butyl]-, 1,2-ethanediylbis[imino(2-oxo-2,1-ethanediyl)oxy-3,1-phenylene[(l R)-3-(3,4-dimethoxyphenyl)propylidene]]ester, [2S-[1(R*),2R*[S*[S*[1(R*),2R*]]]]]-(9Cl)], the “amount needed in vitro for effective signaling of cells, converted” value (cells [1]) is given as 16 to 160 µg/L, the “amount needed in vitro for effective signaling of cells” value (cells [2]) is given as 10 to 100 nM and the pharmacokinetic profile ([3]; 0.01-1.0 mg/kg IV over 2 hours) is given as “favorable pharmacokinetic profile”. For the same compound, the “plasma levels in relation to dose” value ([3]; 0.01-1.0 mg/kg IV over 2 hours) was “directly proportional to dose”, the “plasma level as % of maximal concentration” value (shortened to “plasma level as %”) ([3]; 0.5 hours post-dose) was “approximately 18%” and the “plasma level as %” value ([3]; 2 hours post-dose) was roughly 7%. The “plasma level as %” value ([3]; 10 hours post-dose) was roughly 1%, the doses well-tolerated ([3]; Phase I study) was “up to 1 mg/kg” and the safety and tolerability ([3]; at all dose levels (0.01-1.0 mg/kg)) was “safe and well tolerated”. The “mean Cmax” value ([3]; over the 0.01-1.0 mg/kg dose range, single doses infused IV over 2 hours, 24 healthy volunteers) was 10 to 1275 ng/mL.
